Measurements published in PMC12566511, “The Evaluation of (1R,4R,7R,10R)-α,α′,α″,α‴-Tetramethyl-1,4,7,10-tetraazacyclododecane-1,4,7,10-tetraacetic Acid (DOTMA) as a Chelator for Zirconium-89” (Molecules, 2025).

Test: Biodistribution studies in non-tumor-bearing, normal mice
Assay type: in vivo, female NIH Swiss mice
Details: for Biodistribution (%ID/g) Blood / Biodistribution (%ID/g) Bone / Biodistribution (%ID/g) Fat / Biodistribution (%ID/g) Heart / Biodistribution (%ID/g) Kidney / Biodistribution (%ID/g) Large intestine / Biodistribution (%ID/g) Liver / Biodistribution (%ID/g) Lung / Biodistribution (%ID/g) Muscle / Biodistribution (%ID/g) Pancreas / Biodistribution (%ID/g) Small intestine / Biodistribution (%ID/g) Spleen / Biodistribution (%ID/g) Stomach: tail vein, n = 6
Experimental: Female NIH Swiss mice (6–8 weeks old) were purchased from Inotiv, Lafayette, IN, USA. All animals were acclimated to a 12 h light/dark cycle and received food and water ad libitum for 5 days before any manipulations were performed. All animals were checked by veterinary staff daily to ensure well-being and proper environment and to monitor for signs of distress. Clinical signs of distress in laboratory rodents include decreased activity, pilo-erection, un-groomed appearance, excessive licking and scratching, self-mutilation, abnormal stance, hunched appearance, rapid or shallow respiration, grunting, dilated pupils, aggressiveness towards handler, high-pitched vocalizations, change in feeding activity, and attempts to separate from group. In the event of clinical distress, animals were euthanized after consulting the on-call veterinarian. To minimize suffering during the tail vain injection, animals were kept under deep isoflurane anesthesia. At the end point of the study, animals were anesthetized with isoflurane and were euthanized by cervical dislocation, which is consistent with the recommendations of the American Veterinary Medical Association Guidelines on Euthanasia.
Biodistribution studies were conducted using a modified literature procedure. Briefly, female NIH Swiss mice (6–8 weeks old, n = 6/cohort; 30 animals total) were injected with [^89Zr]Zr-DOTMA (0.55 MBq (15 μCi)/mouse) via the tail vein and sacrificed at 2, 4, 24, 48, and 72 h p.i. Organs and tissues of interest were excised, weighed, and counted on a gamma counter. The percent injected dose per gram (%ID/g) was calculated by comparison to a weighed, counted standard for each group.

CC(C(=O)[O-])N1CCN(C(C)C(=O)[O-])CCN(C(C)C(=O)[O-])CCN(C(C)C(=O)[O-])CC1.[89Zr+4] (centres unmarked) [[^89Zr]Zr-DOTMA]
Biodistribution (%ID/g) Blood (2 h p.i.): 0.011 ± 0.001 %ID/g | Biodistribution (%ID/g) Bone (2 h p.i.): 0.032 ± 0.006 %ID/g | Biodistribution (%ID/g) Fat (2 h p.i.): 0.007 ± 0.003 %ID/g | Biodistribution (%ID/g) Heart (2 h p.i.): 0.021 ± 0.003 %ID/g | Biodistribution (%ID/g) Kidney (2 h p.i.): 1.053 ± 0.071 %ID/g | Biodistribution (%ID/g) Large intestine (2 h p.i.): 0.523 ± 0.112 %ID/g | Biodistribution (%ID/g) Liver (2 h p.i.): 0.238 ± 0.020 %ID/g | Biodistribution (%ID/g) Lung (2 h p.i.): 0.071 ± 0.006 %ID/g | Biodistribution (%ID/g) Muscle (2 h p.i.): 0.008 ± 0.003 %ID/g | Biodistribution (%ID/g) Pancreas (2 h p.i.): 0.011 ± 0.003 %ID/g | Biodistribution (%ID/g) Small intestine (2 h p.i.): 0.229 ± 0.039 %ID/g | Biodistribution (%ID/g) Spleen (2 h p.i.): 0.078 ± 0.008 %ID/g | Biodistribution (%ID/g) Stomach (2 h p.i.): 0.069 ± 0.008 %ID/g | Biodistribution (%ID/g) Blood (4 h p.i.): 0.008 ± 0.001 %ID/g | Biodistribution (%ID/g) Bone (4 h p.i.): 0.024 ± 0.004 %ID/g | Biodistribution (%ID/g) Fat (4 h p.i.): 0.006 ± 0.002 %ID/g | Biodistribution (%ID/g) Heart (4 h p.i.): 0.019 ± 0.004 %ID/g | Biodistribution (%ID/g) Kidney (4 h p.i.): 0.689 ± 0.086 %ID/g | Biodistribution (%ID/g) Large intestine (4 h p.i.): 0.632 ± 0.088 %ID/g | Biodistribution (%ID/g) Liver (4 h p.i.): 0.123 ± 0.017 %ID/g | Biodistribution (%ID/g) Lung (4 h p.i.): 0.060 ± 0.005 %ID/g | Biodistribution (%ID/g) Muscle (4 h p.i.): 0.004 ± 0.002 %ID/g | Biodistribution (%ID/g) Pancreas (4 h p.i.): 0.010 ± 0.004 %ID/g | Biodistribution (%ID/g) Small intestine (4 h p.i.): 0.080 ± 0.007 %ID/g | Biodistribution (%ID/g) Spleen (4 h p.i.): 0.076 ± 0.004 %ID/g | Biodistribution (%ID/g) Stomach (4 h p.i.): 0.013 ± 0.005 %ID/g | Biodistribution (%ID/g) Blood (24 h p.i.): 0.005 ± 0.001 %ID/g | Biodistribution (%ID/g) Bone (24 h p.i.): 0.026 ± 0.004 %ID/g | Biodistribution (%ID/g) Fat (24 h p.i.): 0.005 ± 0.002 %ID/g | Biodistribution (%ID/g) Heart (24 h p.i.): 0.009 ± 0.002 %ID/g | Biodistribution (%ID/g) Kidney (24 h p.i.): 0.077 ± 0.009 %ID/g | Biodistribution (%ID/g) Large intestine (24 h p.i.): 0.022 ± 0.008 %ID/g | Biodistribution (%ID/g) Liver (24 h p.i.): 0.018 ± 0.002 %ID/g | Biodistribution (%ID/g) Lung (24 h p.i.): 0.033 ± 0.004 %ID/g | Biodistribution (%ID/g) Muscle (24 h p.i.): 0.001 ± 0.000 %ID/g | Biodistribution (%ID/g) Pancreas (24 h p.i.): 0.003 ± 0.001 %ID/g | Biodistribution (%ID/g) Small intestine (24 h p.i.): 0.007 ± 0.001 %ID/g | Biodistribution (%ID/g) Spleen (24 h p.i.): 0.044 ± 0.005 %ID/g | Biodistribution (%ID/g) Stomach (24 h p.i.): 0.005 ± 0.002 %ID/g | Biodistribution (%ID/g) Blood (48 h p.i.): 0.004 ± 0.001 %ID/g | Biodistribution (%ID/g) Bone (48 h p.i.): 0.023 ± 0.004 %ID/g | Biodistribution (%ID/g) Fat (48 h p.i.): 0.002 ± 0.001 %ID/g | Biodistribution (%ID/g) Heart (48 h p.i.): 0.004 ± 0.002 %ID/g | Biodistribution (%ID/g) Kidney (48 h p.i.): 0.021 ± 0.003 %ID/g | Biodistribution (%ID/g) Large intestine (48 h p.i.): 0.003 ± 0.001 %ID/g | Biodistribution (%ID/g) Liver (48 h p.i.): 0.008 ± 0.001 %ID/g | Biodistribution (%ID/g) Lung (48 h p.i.): 0.015 ± 0.002 %ID/g | Biodistribution (%ID/g) Muscle (48 h p.i.): 0.001 ± 0.001 %ID/g | Biodistribution (%ID/g) Pancreas (48 h p.i.): 0.001 ± 0.001 %ID/g | Biodistribution (%ID/g) Small intestine (48 h p.i.): 0.002 ± 0.000 %ID/g | Biodistribution (%ID/g) Spleen (48 h p.i.): 0.024 ± 0.005 %ID/g | Biodistribution (%ID/g) Stomach (48 h p.i.): 0.001 ± 0.000 %ID/g | fold less radioactivity associated with liver tissue compared to [^89Zr]Zr-DFO (72 h p.i.): 9 fold | fold less radioactivity in the bone tissue than [^89Zr]Zr-DFO (72 h p.i.): 3 fold | fold less radioactivity retained in the kidney than [^89Zr]Zr-DFO (72 h p.i.): 69 fold | Biodistribution (%ID/g) Blood (72 h p.i.): 0.003 ± 0.001 %ID/g | Biodistribution (%ID/g) Bone (72 h p.i.): 0.023 ± 0.003 %ID/g | Biodistribution (%ID/g) Fat (72 h p.i.): 0.001 ± 0.001 %ID/g | Biodistribution (%ID/g) Heart (72 h p.i.): 0.004 ± 0.001 %ID/g | Biodistribution (%ID/g) Kidney (72 h p.i.): 0.010 ± 0.002 %ID/g | Biodistribution (%ID/g) Large intestine (72 h p.i.): 0.003 ± 0.001 %ID/g | Biodistribution (%ID/g) Liver (72 h p.i.): 0.007 ± 0.001 %ID/g | Biodistribution (%ID/g) Lung (72 h p.i.): 0.013 ± 0.003 %ID/g | Biodistribution (%ID/g) Muscle (72 h p.i.): 0.001 ± 0.001 %ID/g | Biodistribution (%ID/g) Pancreas (72 h p.i.): 0.001 ± 0.001 %ID/g | Biodistribution (%ID/g) Small intestine (72 h p.i.): 0.001 ± 0.000 %ID/g | Biodistribution (%ID/g) Spleen (72 h p.i.): 0.026 ± 0.002 %ID/g | Biodistribution (%ID/g) Stomach (72 h p.i.): 0.001 ± 0.000 %ID/g
